Data reported in patent publication US10118928B2, “Treatment of H. pylori infections using MTAN inhibitors” (ALBERT EINSTEIN COLLEGE OF MEDICINE, INC., priority 2014, dated 2018).
In brackets after ≈: the same amount, converted by molar mass. Like-named read-outs stand apart in the source and are kept apart here.

What was measured:
[1] = test system: H. pylori UNT020-1 (Sydney Strain SS1); experiment: MIC by agar dilution (MHIIb agar), strain UNT020-1; assay type: cell-based; settings: Helicobacter pylori, 72 h
Protocol: (§1) (a) Sample Plate Preparation: Aliquots of a 2-fold serial dilution of Hexyl-SerMe-Immucillin A (from 62.5 μg/mL-6.25 μg/mL in DMSO, 0.02 mL) were mixed into separate 2 mL molten MHIIb agar, and poured into separate wells on each well of a 12-well plate, allowed to set for 20-30 minutes and dry in a biosafety cabinet for 10 minutes prior to Inoculation.
(§2) (b) Inoculation: Frozen inoculate stock of H. pylori strains UNT020-1 (Sydney Strain SS1) and UNT189-1 (ATCC43504) was separately streaked onto Columbia+5% sheep blood agar and microaerophilically incubated for 72 h at 37° C. The plate cultures of the H. pylori strains were then harvested in 0.9% sterile saline solution and the OD at 530 nm of the suspension was determined. The OD of each suspension was adjusted to 1.5-2.0 by dilution into 0.9% sterile saline. The UNT020-1 suspension was further diluted 2:5, but the UNT189-1 suspension was not further diluted, and these were used to inoculate the agar plates. Samples of the suspensions (3 μL) were spotted onto the MHIIb agar wells in the 12-well plate. The CFU/mL of each inoculum was confirmed by generating a 10-fold serial dilution of each inoculum in 0.9% sterile saline and spotting 8 μL of each dilution onto Columbia+5% sheep blood agar plates. After allowing the spots to dry for 10 min, the plates were placed into a microaerophilic chamber and incubated at 37° C. for 72 h.

[2] = test system: H. pylori UNT189-1 (ATCC43504); experiment: MIC by agar dilution (MHIIb agar), strain UNT189-1; assay type: cell-based; settings: Helicobacter pylori, 72 h
Protocol: as §1, §2

[3] = Concentration in mouse gastric mucin after a single oral dose; assay type: in vivo; settings: for concentration at 0.25 h / concentration at 0.5 h / concentration at 1 h / concentration at 2 h / concentration at 4 h / concentration at 8 h / concentration at 12 h / concentration at 24 h: C57/BL6, mouse, gastric mucin, po, 10 mg/kg, mouse; for concentration at 0.25 h: 0.25 h after single dose 10 mg/kg PO; for concentration at 0.5 h: 0.50 h after single dose 10 mg/kg PO; for concentration at 1 h: 1.00 h after single dose 10 mg/kg PO; for concentration at 2 h: 2.00 h after single dose 10 mg/kg PO; for concentration at 4 h: 4.00 h after single dose 10 mg/kg PO; for concentration at 8 h: 8.00 h after single dose 10 mg/kg PO; for concentration at 12 h: 12.0 h after single dose 10 mg/kg PO; for concentration at 24 h: 24.0 h after single dose 10 mg/kg PO
Protocol: (a) Oral Dosing of Mice with 10 mg/kg Hexyl-SerMe-Immucillin A: Female C57/BL6 mice ranging from 5-6 weeks in age and 18-22 grams in weight (Harlan Laboratories) were dosed by oral gavage with of Hexyl-SerMe-Immucillin A (0.4 mL of a 0.5 mg/mL solution in water for injection).
(b) Mucin Sampling: Mice (3 mice/time point) were euthanized via CO2 inhalation at 0.25, 0.5, 1, 2, 4, 8, 12 and 24 h, then the mucin layer was scraped from the longitudinally dissected stomach using a glass slide, collected and weighed.
(c) Preparation of Gastric Mucin Homogenates: Approximately 30 mg of mouse mucin was weighted into a 2 mL homogenizer tube (prefilled with 3.0 mm i.d. zirconium beads) and mixed with 0.2 mL PBS buffer. This was homogenized for 3 min at 4,000 rpm in a Beadbug D1030 (Benchmark Scientific) homogenizer.
(d) Extraction of Gastric Mucin Homogenates: Samples of mucin homogenate (50 μL) and of internal standard (see below) in water (10 μL) were treated with trichloroacetic acid (30% w/v, 30 μL), diluted with water (160 μL), vortexed for 10 sec and sonicated for 10 min, then centrifuged at 14,500 rpm for 5 min. A sample of the supernatant (160 μL) was transferred into autosampler vials. The internal standard was Butylthio-DADMe-Immucillin-H at 5.0 and 20.0 μg/mL.
(f) HPLC-MS-MS Analysis: Aliquots of supernatant (10 μL) were injected for analysis on Surveyor HPLC system (Thermo) fitted with an ACE 3 C18 Column (50×3 mm, 3 μm particles), with gradient elution at 30° C. with 400 μL/min mobile phase comprised of mixtures of 0.1% trifluoroacetic acid in water (A) and methanol (B) as follows: 0-5 min, A:B 9:1; 5-6.1 min, A:B 1:9; 6.1-10 min A:B 9:1. Hexyl-SerMe-Immucillin A eluted at 4.41±0.003 min. Detection was ESI MS/MS using a LCQ Deca (Thermo) in selected-reaction monitoring (SRM) positive mode using the MS/MS event m/z 292.2→147.2 and ion spray voltage of 4.5 kV.

[4] = female, read-out: concentration in gastric mucin, Animal-1
[5] = female, read-out: concentration in gastric mucin, Animal-2
[6] = female, read-out: concentration in gastric mucin, Animal-3
[7] = female, read-out: concentration in gastric mucin, Mean

Question: For `CCCCCC[C@@H](CO)NCc1c[nH]c2c(N)ncnc12` [Hexyl-SerMe-Immucillin A, (2S)-2-[({4-Amino-5H-pyrrolo[3,2-d]pyrimidin-7-yl}methyl)amino]octan-1-ol], which MIC [1] is on record?
Answer: The MIC was 1.9 ng/mL (≈ 6.52 nM).

Question: What about the MIC [2] of the same compound?
Answer: Its MIC is 1.9 ng/mL (≈ 6.52 nM).

Question: And the concentration at 0.25 h [3, 4]?
Answer: The concentration at 0.25 h was 60400 ng/g.

Question: And the concentration at 0.25 h [3, 5]?
Answer: Its concentration at 0.25 h is 64400 ng/g.

Question: What about the concentration at 0.25 h [3, 6] of the same compound?
Answer: The concentration at 0.25 h was 45900 ng/g.

Question: And the concentration at 0.25 h [3, 7]?
Answer: The concentration at 0.25 h was 56900 ng/g.

Question: What about the concentration at 0.5 h [3, 4] of the same compound?
Answer: The concentration at 0.5 h was 46200 ng/g.

Question: And the concentration at 0.5 h [3, 5]?
Answer: Its concentration at 0.5 h is 90200 ng/g.

Question: What about the concentration at 0.5 h [3, 6] of the same compound?
Answer: The concentration at 0.5 h was 60200 ng/g.

Question: And the concentration at 0.5 h [3, 7]?
Answer: The concentration at 0.5 h was 65500 ng/g.

Question: What about the concentration at 1 h [3, 4] of the same compound?
Answer: Its concentration at 1 h is 20400 ng/g.

Question: What about the concentration at 1 h [3, 5] of the same compound?
Answer: Its concentration at 1 h is 12200 ng/g.

Question: And the concentration at 1 h [3, 6]?
Answer: The concentration at 1 h was 12000 ng/g.

Question: And the concentration at 1 h [3, 7]?
Answer: Its concentration at 1 h is 14900 ng/g.

Question: And the concentration at 2 h [3, 4]?
Answer: The concentration at 2 h was 2020 ng/g.

Question: What about the concentration at 2 h [3, 5] of the same compound?
Answer: Its concentration at 2 h is 1080 ng/g.

Question: And the concentration at 2 h [3, 6]?
Answer: The concentration at 2 h was 16200 ng/g.

Question: What about the concentration at 2 h [3, 7] of the same compound?
Answer: Its concentration at 2 h is 6440 ng/g.

Question: What about the concentration at 4 h [3, 4] of the same compound?
Answer: The concentration at 4 h was 670 ng/g.

Question: And the concentration at 4 h [3, 5]?
Answer: The concentration at 4 h was 3740 ng/g.

Question: And the concentration at 4 h [3, 6]?
Answer: The concentration at 4 h was 910 ng/g.

Question: What about the concentration at 4 h [3, 7] of the same compound?
Answer: Its concentration at 4 h is 1770 ng/g.

Question: And the concentration at 8 h [3, 4]?
Answer: The concentration at 8 h was 650 ng/g.

Question: What about the concentration at 8 h [3, 5] of the same compound?
Answer: The concentration at 8 h was 1620 ng/g.

Question: And the concentration at 8 h [3, 6]?
Answer: The concentration at 8 h was 530 ng/g.

Question: What about the concentration at 8 h [3, 7] of the same compound?
Answer: The concentration at 8 h was 930 ng/g.

Question: What about the concentration at 12 h [3, 4] of the same compound?
Answer: Its concentration at 12 h is 960 ng/g.

Question: And the concentration at 12 h [3, 5]?
Answer: Its concentration at 12 h is 950 ng/g.

Question: And the concentration at 12 h [3, 6]?
Answer: The concentration at 12 h was 330 ng/g.

Question: What about the concentration at 12 h [3, 7] of the same compound?
Answer: The concentration at 12 h was 740 ng/g.

Question: And the concentration at 24 h [3, 4]?
Answer: Its concentration at 24 h is 540 ng/g.

Question: And the concentration at 24 h [3, 5]?
Answer: Its concentration at 24 h is 390 ng/g.

Question: And the concentration at 24 h [3, 6]?
Answer: Its concentration at 24 h is 300 ng/g.

Question: What about the concentration at 24 h [3, 7] of the same compound?
Answer: Its concentration at 24 h is 410 ng/g.

Question: And the Cmax ([3]; female, C57/BL6, mouse gastric mucin, 10 mg/kg oral gavage)?
Answer: The Cmax was 65500 ng/g.

Question: And the half-life ([3]; female, C57/BL6, mouse gastric mucin, 10 mg/kg oral gavage, read-out: terminal half-life (converted))?
Answer: The half-life was 2.72 h.

Question: What about the “total exposure [AUC(0-inf)]” value ([3]; mouse gastric mucin, 10 mg/kg oral gavage) of the same compound?
Answer: Its value is 78.6 µg·h/g.
